Results: patent US20220402948A1, “EGFR INHIBITOR, COMPOSITION AND PREPARATION METHOD THEREFOR” (BETTA PHARMACEUTICALS CO., LTD., priority 2019, published 2022)

What was measured:
[1] = target: Ba/F3-EGFR wild-type cell line (Homo sapiens, UniProt P00533); experiment: Ba/F3-EGFR wild-type cell proliferation assay (CellTiter Glo, 72 hours); type: cell-based; conditions: Table 2, read-out: EGFR WT IC50
Method in brief: (§1)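 Ba/F3 cells stably overexpressing wild-type EGFR or EGFR Δ19del/T790M/C797S were seeded at 2000 cells/well and incubated 72 h with compound. Viability was read by CellTiter-Glo luminescence, and IC50 came from a four-parameter logistic fit of signal against log concentration.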

A431 = A431 cell proliferation assay (CellTiter Glo, 72 hours); type: cell-based; conditions: Homo sapiens, A-431, 72 h, cell proliferation, A431, 72 hours, Table 2; read-out: A431 IC50
Method in brief: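 A431 cells (2000/well) exposed 72 h to compound at 1000 nM down to 0.2 nM in 3-fold steps, 0.1% DMSO (0.5% for some series). Viability by CellTiter-Glo luminescence; IC50 by four-parameter nonlinear regression.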

EGFR WT = EGFR WT (Homo sapiens, UniProt P00533); experiment: EGFR WT kinase test (mobility variation analysis, Caliper EZ Reader); type: biochemical; conditions: kinase enzymatic activity, Table 1
Chain of EGFR WT (P00533 25-1210): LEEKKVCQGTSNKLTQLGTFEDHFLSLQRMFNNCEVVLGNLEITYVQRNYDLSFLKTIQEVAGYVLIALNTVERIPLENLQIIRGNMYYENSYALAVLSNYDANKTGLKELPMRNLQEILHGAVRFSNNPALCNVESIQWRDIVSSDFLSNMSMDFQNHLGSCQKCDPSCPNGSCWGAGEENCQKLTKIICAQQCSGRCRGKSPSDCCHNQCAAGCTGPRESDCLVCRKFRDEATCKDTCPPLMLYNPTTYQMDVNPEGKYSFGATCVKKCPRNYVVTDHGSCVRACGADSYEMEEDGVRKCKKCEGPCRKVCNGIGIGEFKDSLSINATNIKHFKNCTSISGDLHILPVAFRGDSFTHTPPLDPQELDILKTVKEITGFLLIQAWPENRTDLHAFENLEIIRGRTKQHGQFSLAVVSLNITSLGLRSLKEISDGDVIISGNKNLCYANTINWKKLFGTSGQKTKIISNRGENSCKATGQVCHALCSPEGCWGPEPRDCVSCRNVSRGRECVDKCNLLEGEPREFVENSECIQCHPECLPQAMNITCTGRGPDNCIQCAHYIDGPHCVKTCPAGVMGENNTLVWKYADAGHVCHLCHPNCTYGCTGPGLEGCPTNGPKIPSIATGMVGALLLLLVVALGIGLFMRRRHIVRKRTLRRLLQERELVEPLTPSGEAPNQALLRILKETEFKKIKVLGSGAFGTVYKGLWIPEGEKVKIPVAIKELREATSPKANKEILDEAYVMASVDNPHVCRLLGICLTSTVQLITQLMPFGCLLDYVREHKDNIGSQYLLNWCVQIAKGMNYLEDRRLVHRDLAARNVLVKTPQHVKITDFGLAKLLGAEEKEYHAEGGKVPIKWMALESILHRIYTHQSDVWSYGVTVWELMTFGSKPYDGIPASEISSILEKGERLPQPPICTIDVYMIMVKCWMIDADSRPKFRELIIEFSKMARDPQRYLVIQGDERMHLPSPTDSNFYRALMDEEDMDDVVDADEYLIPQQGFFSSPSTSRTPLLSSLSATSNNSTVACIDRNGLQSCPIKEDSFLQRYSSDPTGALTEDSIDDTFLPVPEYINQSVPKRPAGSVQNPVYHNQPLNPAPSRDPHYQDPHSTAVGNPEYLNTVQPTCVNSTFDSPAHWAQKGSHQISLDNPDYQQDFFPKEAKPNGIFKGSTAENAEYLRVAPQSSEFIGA
Method in brief: (§2)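 Kinase pre-incubated with compound 10 minutes at room temperature, then ATP plus peptide substrate added; substrate conversion read by mobility shift after stop solution. Percent inhibition normalized to no-compound and no-enzyme controls; IC50 from variable-slope log(inhibitor) fit.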

EGFRΔ19del/T790M/C797S = EGFRΔ19del/T790M/C797S (Homo sapiens, UniProt P00533, T790M/C797S, form not given); experiment: EGFR Δ19del/T790M/C797S kinase test (mobility variation analysis, Caliper EZ Reader); type: biochemical; conditions: kinase enzymatic activity, Table 1
Method in brief: as §2

IGF1R = IGF1R (Homo sapiens, UniProt P08069); experiment: IGF1R kinase test (mobility variation analysis, Caliper EZ Reader); type: biochemical; conditions: kinase enzymatic activity, Table 1; read-out: EGFR IGF1R IC50
Chain of IGF1R (P08069 31-1367, species assumed): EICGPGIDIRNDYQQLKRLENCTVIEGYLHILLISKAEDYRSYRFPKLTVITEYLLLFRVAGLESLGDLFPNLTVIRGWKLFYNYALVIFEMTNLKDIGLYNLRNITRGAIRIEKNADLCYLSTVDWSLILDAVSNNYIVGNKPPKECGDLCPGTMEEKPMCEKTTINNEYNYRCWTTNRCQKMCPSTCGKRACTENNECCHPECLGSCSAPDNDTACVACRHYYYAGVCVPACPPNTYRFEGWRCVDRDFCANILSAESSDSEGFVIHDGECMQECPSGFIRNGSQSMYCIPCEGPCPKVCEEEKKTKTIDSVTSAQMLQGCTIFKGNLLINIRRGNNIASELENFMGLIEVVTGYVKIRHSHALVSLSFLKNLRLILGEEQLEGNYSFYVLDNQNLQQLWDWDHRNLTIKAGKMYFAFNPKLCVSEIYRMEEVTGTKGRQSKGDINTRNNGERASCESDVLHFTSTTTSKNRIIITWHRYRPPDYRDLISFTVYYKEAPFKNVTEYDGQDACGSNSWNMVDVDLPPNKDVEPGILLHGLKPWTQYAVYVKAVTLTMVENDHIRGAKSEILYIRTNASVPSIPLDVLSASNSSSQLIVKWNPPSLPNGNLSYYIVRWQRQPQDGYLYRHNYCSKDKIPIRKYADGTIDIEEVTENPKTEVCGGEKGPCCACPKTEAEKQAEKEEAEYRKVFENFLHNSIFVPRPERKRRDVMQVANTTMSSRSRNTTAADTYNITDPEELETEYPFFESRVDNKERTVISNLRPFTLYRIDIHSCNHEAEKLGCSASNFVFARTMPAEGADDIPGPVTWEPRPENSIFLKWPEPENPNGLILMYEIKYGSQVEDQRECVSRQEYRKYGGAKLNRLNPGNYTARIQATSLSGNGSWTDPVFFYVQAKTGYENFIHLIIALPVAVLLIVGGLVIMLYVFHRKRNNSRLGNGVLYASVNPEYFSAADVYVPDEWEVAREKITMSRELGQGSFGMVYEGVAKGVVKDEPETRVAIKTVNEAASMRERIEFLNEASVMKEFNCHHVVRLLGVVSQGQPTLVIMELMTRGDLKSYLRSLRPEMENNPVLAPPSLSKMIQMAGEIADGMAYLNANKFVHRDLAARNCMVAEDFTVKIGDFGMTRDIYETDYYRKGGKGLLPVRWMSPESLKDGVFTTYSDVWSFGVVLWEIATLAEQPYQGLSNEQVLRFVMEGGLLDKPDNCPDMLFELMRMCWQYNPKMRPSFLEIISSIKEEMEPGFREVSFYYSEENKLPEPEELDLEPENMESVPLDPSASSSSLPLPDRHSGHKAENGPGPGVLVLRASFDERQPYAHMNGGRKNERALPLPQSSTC
Method in brief: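 Kinase preincubated 10 min at room temperature with compound (10-point 3-fold series, top 3000 nM), then ATP and substrate added and reacted at room temperature. Substrate conversion read by mobility-shift (Caliper EZ Reader); % inhibition vs no-enzyme and no-compound controls fitted to variable-slope curve for IC50.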

[2] = target: Ba/F3 cells with EGFR Δ19del/T790M/C797S mutation gene stably overexpressed (Homo sapiens, UniProt P00533, T790M/C797S, cells depend on it, form not given); experiment: Ba/F3-Δ19del/T790M/C797S cell proliferation assay (CellTiter Glo, 72 hours); type: cell-based; conditions: Table 2, read-out: EGFR Δ19del/T790M/C797S IC50
Chain of Ba/F3 cells with EGFR Δ19del/T790M/C797S mutation gene stably overexpressed (P00533 with tags, fused parts or gaps DEL746-750/T790M/C797S, form open): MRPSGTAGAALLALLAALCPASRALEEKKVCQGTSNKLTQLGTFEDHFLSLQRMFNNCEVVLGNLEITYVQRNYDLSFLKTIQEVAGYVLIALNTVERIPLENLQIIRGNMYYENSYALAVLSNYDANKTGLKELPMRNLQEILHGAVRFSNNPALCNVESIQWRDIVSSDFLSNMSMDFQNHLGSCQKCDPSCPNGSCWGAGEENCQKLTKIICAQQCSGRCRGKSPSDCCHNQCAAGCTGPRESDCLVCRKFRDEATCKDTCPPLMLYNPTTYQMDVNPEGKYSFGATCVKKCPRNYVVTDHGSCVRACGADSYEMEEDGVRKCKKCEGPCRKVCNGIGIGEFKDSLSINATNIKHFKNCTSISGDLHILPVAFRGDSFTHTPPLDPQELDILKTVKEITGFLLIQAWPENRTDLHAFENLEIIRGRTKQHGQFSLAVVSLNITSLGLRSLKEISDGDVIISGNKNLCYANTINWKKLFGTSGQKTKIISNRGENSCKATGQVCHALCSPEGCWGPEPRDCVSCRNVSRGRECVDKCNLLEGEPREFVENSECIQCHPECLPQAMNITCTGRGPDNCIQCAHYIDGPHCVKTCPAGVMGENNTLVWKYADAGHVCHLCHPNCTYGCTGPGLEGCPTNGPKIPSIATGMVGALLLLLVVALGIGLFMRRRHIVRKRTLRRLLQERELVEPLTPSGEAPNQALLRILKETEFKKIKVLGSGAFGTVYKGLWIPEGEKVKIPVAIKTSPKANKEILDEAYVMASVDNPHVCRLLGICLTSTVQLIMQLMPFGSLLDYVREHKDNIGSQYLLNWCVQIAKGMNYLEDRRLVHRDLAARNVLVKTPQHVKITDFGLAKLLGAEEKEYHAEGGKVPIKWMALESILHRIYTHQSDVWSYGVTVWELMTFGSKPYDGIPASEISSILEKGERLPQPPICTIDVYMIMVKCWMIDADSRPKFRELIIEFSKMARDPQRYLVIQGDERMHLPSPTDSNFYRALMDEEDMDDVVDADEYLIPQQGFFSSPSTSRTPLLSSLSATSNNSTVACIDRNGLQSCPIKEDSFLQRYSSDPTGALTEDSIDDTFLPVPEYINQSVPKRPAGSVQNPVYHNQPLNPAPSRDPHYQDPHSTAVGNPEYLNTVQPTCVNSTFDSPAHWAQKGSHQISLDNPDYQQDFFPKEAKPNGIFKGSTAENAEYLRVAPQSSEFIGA
Method in brief: as §1

Chain of Ba/F3-EGFR wild-type cell line (P00533 whole entry, stated change not applied): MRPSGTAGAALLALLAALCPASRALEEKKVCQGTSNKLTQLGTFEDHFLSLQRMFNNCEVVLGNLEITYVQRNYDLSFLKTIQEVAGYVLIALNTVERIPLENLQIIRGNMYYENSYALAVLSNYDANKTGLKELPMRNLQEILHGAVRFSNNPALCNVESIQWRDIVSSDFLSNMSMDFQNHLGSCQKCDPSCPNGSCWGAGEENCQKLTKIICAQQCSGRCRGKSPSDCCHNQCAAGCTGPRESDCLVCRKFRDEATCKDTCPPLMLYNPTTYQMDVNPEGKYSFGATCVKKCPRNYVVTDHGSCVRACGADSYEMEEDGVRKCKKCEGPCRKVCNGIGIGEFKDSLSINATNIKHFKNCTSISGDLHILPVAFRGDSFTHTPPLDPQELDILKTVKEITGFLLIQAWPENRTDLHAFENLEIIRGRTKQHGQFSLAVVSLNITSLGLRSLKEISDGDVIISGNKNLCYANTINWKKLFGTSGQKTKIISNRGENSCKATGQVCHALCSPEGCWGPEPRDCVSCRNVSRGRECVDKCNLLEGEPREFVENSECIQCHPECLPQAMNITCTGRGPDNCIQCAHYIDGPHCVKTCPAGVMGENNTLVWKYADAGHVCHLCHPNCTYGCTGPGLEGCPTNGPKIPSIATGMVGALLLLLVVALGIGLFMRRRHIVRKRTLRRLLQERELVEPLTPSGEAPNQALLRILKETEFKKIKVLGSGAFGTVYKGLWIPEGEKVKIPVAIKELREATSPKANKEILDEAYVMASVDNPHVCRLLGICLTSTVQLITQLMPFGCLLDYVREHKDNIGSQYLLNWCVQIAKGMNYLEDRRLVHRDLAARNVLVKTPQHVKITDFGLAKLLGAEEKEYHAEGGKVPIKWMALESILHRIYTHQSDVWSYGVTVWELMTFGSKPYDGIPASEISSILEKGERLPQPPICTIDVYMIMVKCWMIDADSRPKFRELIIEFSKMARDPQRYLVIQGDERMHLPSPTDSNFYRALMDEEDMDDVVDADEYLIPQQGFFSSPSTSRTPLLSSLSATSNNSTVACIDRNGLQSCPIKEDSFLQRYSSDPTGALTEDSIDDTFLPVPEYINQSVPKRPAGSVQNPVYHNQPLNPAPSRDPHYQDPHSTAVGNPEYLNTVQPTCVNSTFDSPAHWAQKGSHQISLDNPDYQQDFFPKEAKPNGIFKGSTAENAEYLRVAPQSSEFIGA

SMILES	GI50 [1]	IC50 (A431)	IC50 (EGFR WT)	IC50 (EGFRΔ19del/T790M/C797S)	IC50 (IGF1R)	GI50 [2]
COc1cnn(-c2ccc(Nc3nc(Nc4cc(C)c(N5CCN(C6CCCC6)CC5)cc4OC)ncc3Br)c(P(C)(C)=O)c2)c1 [Compound K-089, (2-((5-Bromo-2-((4-(4-cyclopentylpiperazin-1-yl)-2-methoxy-5-methylphenyl)amino)pyrimidin-4-yl)amino)-5-(4-methoxy-1H-pyrazol-1-yl)phenyl)dimethylphosphine oxide]	400 nM	> 10000 nM	169 nM	0.3 nM	259 nM	9.5 nM
CCc1cc(Nc2ncc(Br)c(Nc3ccc(-n4cc(COC)cn4)cc3P(C)(C)=O)n2)c(OC)cc1N1CCC(N2CCN(C)CC2)CC1 [Compound K-090]	467 nM	2320 nM	28.2 nM	0.3 nM	202 nM	18.4 nM
CCc1cc(Nc2ncc(Cl)c(Nc3ccc(-c4cnn5c4CCCC5)cc3P(C)(C)=O)n2)c(OC)cc1N1CCC(N2CCN(C)CC2)CC1 [Compound K-104, (2-((5-Chloro-2-((5-ethyl-2-methoxy-4-(4-(4-methylpiperazin-1-yl)piperidin-1-yl)phenyl)amino)pyrimidin-4-yl)amino)-5-(4,5,6,7-tetrahydropyrazolo[1,5-a]pyridin-3-yl)phenyl)dimethylphosphine oxide]	204 nM	3250 nM	23.1 nM	0.4 nM	378 nM	64.2 nM
